Measured values published in patent publication US5744499A, “Apoptosis-modulating factors influencing the intracellular concentration of methional/malondialdehyde” (Centre International de Recherches Dermatologiques Galderma, priority 1994, dated 1998).

What was measured:
HeLa cells [1] = test: 2-oxobutyrate reversal of MTOB-induced growth inhibition of HeLa cells (methionine-free medium); format: cell-based
Experimental: HeLa cells (0.5×10^6 per Petri dish) were cultured in 3 ml of a minimum essential Eagle medium not containing methionine and containing 10% by weight dialyzed fetal calf serum. After four hours, 2-oxobutyrate (10 mM-40 mM) in the presence of 2 mM 4-methylthio-2-oxobutanoic acid (MTOB) were added. After three days at 37° C., the cells were washed twice in a buffered, phosphatized saline medium having a pH of 7.5 (PBS medium) and collected in the same type of buffer. Cell growth was measured in the same manner as in the preceding example.
Beginning at a level of 10 mM 2-oxobutyrate, inhibition decreased 2-3 times.

BAF3 cells [2] = test: Apoptosis of BAF3 cells, terminal deoxynucleotidyl transferase (TdT) test, flow cytometry; format: cell-based, mouse; settings: 24 hours; compound A 50 μM, BCNU 40 μg/ml, or both; control 0.2
Experimental: Effect of BCNU and of an inhibitor of the transaminase implicated in the transformation of 4-methylthio-2-oxobutanoic acid into methionine on apoptosis:
The DNA strand cuttings were marked with biotinylated dUTP (detected by avidin fluorescein), in situ, in the cells rendered permeable and fixed using the terminal DNA transferase deoxynucleotidyl test (TdT), as described in Gorczyca et al, Cancer Res., 53, 1945-1951 (1993). 1.5×10^6 BAF3 cells (cell line described above) seeded in 3 ml of a culture medium containing IL3 (Dulbecco-modified Eagle medium containing 6% fetal calf serum and 5% of a medium treated with Wehl-3B cells used in the IL3 source). The cells were incubated in the presence of compound A in a concentration of 50 μM, 40 μg/ml of BCNU, and the mixture of these two compounds (50 μM of compound A+40 μg/ml of BCNU) or in the absence of these two compounds (control). After a 24-hour incubation period of time, the cells were washed in PBS buffer and fixed in formaldehyde, then in ethanol, and maintained a -20° C. for 3 days. Next, the cells were again placed in suspension in 50 μl of a solution containing […] sodium cacodylate, pH=7.5, 1 mM CoCl2, 0.1 mM dithiothreitol, 0.05 mg/ml Bovine Serum Albumin, 10 units TdT (from Boerhringer calf thymus), 0.5 nmol dCTP, and 0.5 nmol dGTP for one hour at 37° C. […]

[3] = tested on: murine B16 Fl melanoma cells; test: Survival of mice grafted with B16 melanoma cells; format: in vivo, mouse; settings: BCNU 0.1 mg/kg, Compound A 25 mg/kg
Experimental: At t=0 day, 10^5 murine B16 Fl melanoma cells were injected into B6D2Fl mice (from the IFFA CREDO Company, France).
Table 5 reports the results corresponding to averages of the results obtained on three treated mice.
For the regimens containing multiple compounds, the quantities of each of the compounds used were identical to those of the regimens using the compounds by themselves.
Survival time was recorded beginning at t=0 day, as indicated above.
BCNU corresponds to N,N-Bis(2-chloroethyl)-N-nitrosourea. Compound A corresponds to the compound having formula (9), wherein X is a --OH radical.
Between the two regimens, the latter (to which methional was added) accounted for one-third of the mice surviving more than 60 days. The "average survival time" is the mean of the number of mice dying over the course of the experiment, i.e., within 60 days.
The procedure of the previous example was repeated, but the regimens and numbers of mice treated varied.
With respect to this latter regiment, the quantities corresponded to the quantities of compounds used alone. The percentage of long-term survivors corresponded to the percentage of mice which survived beyond 60 days.

[4] = tested on: reactive oxygenated substances (H2 O2 and HO^-); test: Production of reactive oxygenated substances (H2O2 and HO-) in BAF3 cells, DCFH-DA flow cytometry; format: cell-based, mouse; settings: for Fluorescence/10^6 cells: compound A 0 μM
HeLa cells [5] = test: Effect of metabolites on the growth of HeLa cells; format: cell-based; settings: Homo sapiens, 72 h, three days at 37° C., estimated by protein content, average of 3 or 4 experiments, read-out: IC50 (concentration required to inhibit cell growth by 50%)
Experimental: HeLa cells (0.5×10^6 per Petri dish) were cultured in 3 ml of a minimum essential Eagle medium containing 10% by weight dialyzed fetal calf serum. After four hours, methional (10 μM-1 mM), methionol (10 μM-20 mM), methylthiopropionic acid (MTPA) (1 μM-20 mM), L-methionine (1 μM-20 mM) or 4-methylthio-2-oxobutanoic acid (MTOB) (1 μM-20 mM) were added to each of the three dishes. After three days at 37° C., the cells were washed twice in a buffered, phosphatized saline medium having a pH of 7.5 (PBS medium) and collected in the same type of buffer.
Cell growth was assessed by measuring protein content (see technique described in O. H. Lowry, N. J. Rosebrouh, A. L. Farr, and R. J. Randall, J. Biol. Chem., 193, 265-275 (1951)) or the DNA content in the lysate using a bisbenzimide trihydrochloride solution (Hoechst 33258) (see W. D. Jarvis, R. N. Kolesnick, F. A. Fornari, R. S. Traylor, D. A. Gewirtz, and S. Grant, Proc. Natl. Acad. Sci. USA, 91, 73-77 (1994)), or by determining […] using 3-(4,5-dimethylthiazol-2-yl)-2,5-diphenyl-tetrazolium bromide (MTT) (see T. Mosmann, J. of Immunology, Methods, 65, 55-63 (1983)).
Each value of is the average of 3 or 4 experiments as estimated by protein content.
IC50 represents the concentration of compound required to inhibit cell growth by 50%.

BAF3-bcl2 cells = tested on: BAF3-bcl2 cells
Experimental: (§1) The cells used were identical to those in the preceding example.
(§2) [^14 C]MTOB was prepared by oxidative deamination of [^14 C]Methionine, as described in Ogier et al, Biochem. Pharmacol., 45, 1631-1644 (1993). [^14 C]MTOB (5×10^6 dpm corresponding to 38.2 nmol) was added to a cellular BAF3-bO or BAF3-bcl2 suspension (2.4×10^5 cells/ml) in DMEM containing 6% fetal calf serum and 5% IL3. 39 hours later, the cells were washed twice in PBS and placed in suspension at a concentration of 9×10^5 cells/ml. [U ^14 C]MTOB (1.9×10^6 dpm corresponding to 14.5 nmol) was added to 10^8 cells, and, eight hours later, the cells were collected by centrifugation at 400 g for five minutes. The cellular sediments were solubilized using 1.5 ml of 0.5N NaOh for 30 minutes at 60° C. The total radioactivity in the cells was measured on 10 μl aliquots. Next, perchloric acid in a final concentration of 0.5N, then 200 μmol of 2,4-DNPH (2,4-dinitrophenylhyrazine, marketed by Merck) were added to the alkaline hydrolyzate obtained. The mixture was heated to 70° C. for 30 minutes, then centrifuged at 400 g for five minutes. The precipitate was solubilized ion 1 ml of 0.5N NaOH, and the radioactivity and protein content were determined. NaOH, pH=10, was added to the supernatant. The marked metabolites were extracted in ethylene acetate, and the organic phase was dried, acidified, and extracted in dichloromethane. The marked metabolites in the organic phase were separated out and identified using high-performance thin-layer chromatography and compared to the 2,4-DNPH derivatives of the reference compounds, then quantified by radiochromatography.

BAF3-bO cells = tested on: BAF3-bO cells
Experimental: as §1, §2

BAF3 cells [6] = test: DNA fragmentation in BAF3 cells, agarose gel electrophoresis; format: cell-based, mouse; settings: 200-800 μM, medium with IL3, 8 hours
Experimental: K. L. Collins, J. Marvel, […] A. Lopez-[…]. Exp. Med., 176, 1043-1051 (1992)]. […] After 8 hours of contact, the cells were washed three times in a phosphatized buffered saline medium, pH=7.5 (PBS medium). […] The supernatants were decanted and analyzed as indicated below. For purposes of comparison, the same cultures were grown in a medium, either with IL3 (+IL3) or without IL3 (-IL3). The DNA fragments obtained were analyzed qualitatively using the method described, in particular, in W. D. Jarvis, […], and S. Grant, Proc. Natl. Acad. Sci. USA, 91, 73-77 (1994). The supernatants were treated with ribonuclease A (20 μg/ml) for 1 hour at 37° C., and with the proteinase R (100 μg/ml). The DNA was purified using phenol extraction and precipitated with ethanol. […] After electrophoresis (60V, 3 hours), the gels were stained with ethydium bromide.

[7] = Table 5, three mice, daily injection for 15 days, Methional 25 mg/kg, control 20.5

CCC(=O)C(=O)O [2-oxobutyrate]
decrease of growth inhibition (HeLa cells [1]; beginning at 10 mM 2-oxobutyrate, with 2 mM MTOB): 2-3 times

O=NN(CCCl)C(=O)NCCCl [BCNU, N,N-Bis(2-chloroethyl)-N-nitrosourea]
% apoptotic cells (BAF3 cells [2]): 2.3% | Average Survival Time [3, 7]: 24.5 days | % long-term survivors (mice surviving beyond 60 days) ([3]; Table 6, 6 or 10 mice, Methional 50 mg/kg, control 0): 0% | Average Survival Time ([3]; Table 6, 6 or 10 mice, Methional 50 mg/kg, control 23.7): 32.5 days | Fluorescence/10^6 cells ([4]; BCNU 10 μg/ml): 4% | Fluorescence/10^6 cells ([4]; BCNU 20 μg/ml): 4% | Fluorescence/10^6 cells ([4]; BCNU 40 μg/ml): 10%

CSCCC(NCc1c(CO)cnc(C)c1O)C(=O)OC(C)(C)C (stereo not drawn) [Compound A]
% apoptotic cells (BAF3 cells [2]): 0.3% | Average Survival Time [3, 7]: 21.9 days | effect on increase of HO^- resulting from increased BCNU concentration ([4]; compound A 50 μM with BCNU): suppressed the increase of HO^-

CSCC[C@H](N)C(=O)O [L methionine, L-methionine]
IC50 (HeLa cells [5]): > 20 mM

CSCCC(=O)C(=O)O [MTOB, 4-methylthio-2-oxobutanoic acid]
IC50 (HeLa cells [5]): 1.6 mM | inhibition at 2000 µM (HeLa cells [1]; Homo sapiens, HeLa, 72 h, 2 mM MTOB alone, three days at 37° C.): 72%

CSCCC(=O)O [MTPA, methylthiopropionic acid]
IC50 (HeLa cells [5]): 10 mM

CSCCC(=O)C(=O)O [[^14 C]MTOB]
2,4-DNPH malondialdehyde (2,4-DNPH pyrazole) (BAF3-bcl2 cells; BAF3-bcl2): 0 dpm/mg of DNA | 2,4-DNPH methional (BAF3-bcl2 cells; BAF3-bcl2): 7,650 dpm/mg of DNA | Free methional (BAF3-bcl2 cells; BAF3-bcl2): 51,440 dpm/mg of DNA | Spec. activity of cellular proteins (BAF3-bcl2 cells; BAF3-bcl2): 20,850 dpm/mg protein | Total radioactivity/mg of DNA (BAF3-bcl2 cells; BAF3-bcl2, incubation 47 hours): 1,111,000 /mg of DNA | marked malondialdehyde formation, result in words (BAF3-bcl2 cells; BAF3-bcl2 cell extracts): no radioactivity with respect to the malondialdehyde was detected | increase in radioactivity of free methionine (printed metmonine) in BAF3-bcl2 versus BAF3-bO cells (BAF3-bcl2 cells; BAF3-bcl2 compared with BAF3-bO): 40% | 2,4-DNPH malondialdehyde (2,4-DNPH pyrazole) (BAF3-bO cells; BAF3-bO): 800 dpm/mg of DNA | 2,4-DNPH methional (BAF3-bO cells; BAF3-bO): 14,050 dpm/mg of DNA | Free methional (BAF3-bO cells; BAF3-bO): 36,820 dpm/mg of DNA | Spec. activity of cellular proteins (BAF3-bO cells; BAF3-bO): 23,500 dpm/mg protein | radioactivity in methional higher in BAF3-bO than in BAF3-bcl2 cells (BAF3-bO cells; BAF3-bO compared with BAF3-bcl2): 80% | Total radioactivity/mg of DNA (BAF3-bO cells; BAF3-bO, incubation 47 hours): 1,252,000 /mg of DNA

CSCCCO [methionol]
IC50 (HeLa cells [5]): > 20 mM

CCCO [propanol]
triggering of apoptosis (ladder of DNA fragments of 180 to 200 base pairs on gel) (BAF3 cells [6]): the gel did not possess this characteristic
